What was measured:
Assay type in all cases: in vivo
rat dry eye models [1] = assay: Observation of dry spot areas in the tear film of rat dry eye models; settings: four times a day for 5 days, dry environment
From the text: Air was blown against rats in a low humidity environment as described below to prepare rat dry eye models. An effect of sodium D-3-hydroxybutyrate (hereinafter abbreviated as “HBA.Na”) which is an active ingredient in the present invention, i.e., its effect of improving the stability of tear film, was examined by use of the prepared rat dry eye models. That is, observation of dry spot areas in the tear film of the rats and measurement of BUT of the tear film were made. […]
After passage of two hours from the last application of the eye drops on the fifth day, a xylazine hydrochloride/ketamine hydrochloride mixed solution was injected (2 ml/kg) into the rats to anesthetize them. […] Dry spot areas had been observed for 5 minutes since the eye-opening by use of a dry eye observation device “DR-1” (product of KOWA CO., LTD.), and the observed images were recorded on a videotape. The observed images were analyzed by use of image analysis software “Scion Image (version 4.02β)” (product of Scion Corporation) to determine a dry spot area per unit area [dry spot area (pixel)/area of observed area on the cornea (pixel)]. From the area, a dry spot area per unit area of the cornea [dry spot area (mm^2)/area of observed area on the cornea (mm^2)] was calculated by use of a conversion formula (1 pixel=0.0000195 mm^2) and evaluated. […]

[2] = test system: corneal epithelial cells of rat dry eye models; assay: SEM observation of corneal epithelial cells of rat dry eye models (proportion of dark cells, microvilli); settings: 80 mmol/l HBA.Na applied for 5 days, dry environment
Protocol: By use of the rat dry eye models described in Example 1, the corneal epithelial cells of the rats after HBA.Na and PBS were applied were observed by a scanning electron microscope (hereinafter abbreviated as “SEM”).
Samples were prepared in the following manner. • (1) In accordance with the methods described (1), (2) and (4) of Example 1, after 80 mmol/l of HBA.Na and a PBS solution were applied for 5 days, the corneas of the rats were removed immediately and washed with a phosphate buffer (hereinafter abbreviated as “PB”). […]
The photographs taken by the above method were subjected to image analysis to calculate the proportion of the number of dark cells. In the analysis, 6 spots of a certain area were selected randomly from the photograph, the numbers of cells and dark cells within the areas were counted, and the ratio of the number of dark cells to the number of all cells was calculated. […]

rat dry eye models [3] = assay: Measurement of tear film breakup time (BUT) in rat dry eye models; settings: eye drops of any concentration (40, 80 and 120 mmol/L HBA.Na), four times a day for 5 days, dry environment
From the text: Air was blown against rats in a low humidity environment as described below to prepare rat dry eye models. An effect of sodium D-3-hydroxybutyrate (hereinafter abbreviated as “HBA.Na”) which is an active ingredient in the present invention, i.e., its effect of improving the stability of tear film, was examined by use of the prepared rat dry eye models. That is, observation of dry spot areas in the tear film of the rats and measurement of BUT of the tear film were made.
As the animals to be examined, there were used female SD rats of 8 weeks old that had been conditioned in an animal room where they were kept under light for 12 hours and in the dark for 12 hours at a room temperature of 23±2° C. and a relative humidity of 60±10%. The rats were kept in the animal room for 4 days. […]
After passage of two hours from the last application of the eye drops on the fifth day, a xylazine hydrochloride/ketamine hydrochloride mixed solution was injected (2 ml/kg) into the rats to anesthetize them. After 1% fluorescein was added to the eyes of the rats and the rats were forced to blink a few times, BUT was measured. The above procedure was conducted for HBA.Na concentrations of 40, 80 and 120 mmol/L, and each of the HBA.Na concentrations was evaluated based on 8 eyes of 8 rats.

In the case of `C[C@@H](O)CC(=O)[O-].[Na+]` [HBA.Na, sodium D-3-hydroxybutyrate], the “dry spot area per unit area of the cornea, compared with PBS” value (rat dry eye models [1]; eye drop containing 80 mmol/l HBA.Na, p<0.05 vs PBS) was “significantly smaller dry spot area”, the “dry spot area per unit area of the cornea, compared with PBS” value (rat dry eye models [1]; eye drop containing 120 mmol/l HBA.Na, tendency only) was “the dry spot area also became smaller” and the “state of the microvilli/microvillus of the corneal epithelial cells” value ([2]; SEM) was “retained in a normal state and/or restored to the normal state”. For the same compound, the “proportion of dark cells in corneal epithelial cells, compared with PBS” value ([2]; SEM image analysis) was “significantly lower proportion of dark cells” and the “tear film breakup time (BUT), compared with PBS” value (rat dry eye models [3]) was “BUT extended more significantly”.

From patent US8541468B2, “Ophthalmic composition for treating tear dysfunction” (Ophtecs Corporation, priority 2003, dated 2013)
